Source: patent EP0348735A2, “5-Chlor-4-cyano-thiazol-2-yl-oxyacetic-acid amide” (BAYER AG, priority 1988, dated 1990)

Test system: Testpflanzen
Assay: Pre-emergence test (herbicidal activity)
Type: in vivo
Settings: seeds watered with the preparation 24 h after sowing, rated after three weeks, compared in words with the prior-art comparison substance 2-(Benzthiazol-2-yl-oxy)-essigsäure-N-methyl-anilid, no numbers given
From the text: Zur Herstellung einer zweckmäßigen Wirkstoffzubereitung vermischt man 1 Gewichtsteil Wirkstoff mit der angegebenen Menge Lösungsmittel, gibt die angegebene Menge Emulgator zu und verdünnt das Konzentrat mit Wasser auf die gewünschte Konzentration.
Samen der Testpflanzen werden in normalen Boden ausgesät und nach 24 Stunden mit der Wirkstoffzubereitung begossen. Dabei hält man die Wassermenge pro Flächeneinheit zweckmäßigerweise konstant. Die Wirkstoffkonzentration in der Zubereitung spielt keine Rolle, entscheidend ist nur die Aufwandmenge des Wirkstoffs pro Flächeneinheit. Nach drei Wochen wird der Schädigungsgrad der Pflanzen bonitiert in % Schädigung im Vergleich zur Entwicklung der unbehandelten Kontrolle.

CN(C(=O)COc1nc(C#N)c(Cl)s1)c1ccccc1 [Beispiel 1, 2-(5-Chlor-4-cyanothiazol-2-yl-oxy)-essigsäure-N-methyl-anilid]
Wirksamkeit (Schädigungsgrad der Pflanzen in % Schädigung im Vergleich zur unbehandelten Kontrolle): deutliche Überlegenheit in der Wirksamkeit
